Data on four molecules can be found in ChEMBL document CHEMBL3627717, “Multivalent LKγ-PNA oligomers bind to a human telomere DNA G-rich sequence to form quadruplexes” (Bioorg Med Chem Lett, 2015).

For this test, the system named is DNA. The test is described as follows: Binding affinity to human truncated telomeric DNA1 assessed as melting temperature at 20 uM by UV melting curve analysis (reference value: 58.9 +/- 0.3 degC). The format is nucleic-acid assay.
Turning to `CC(=O)NCCN(CC(=O)NCCN(CC(=O)NCCN(CC(=O)NCCN(CC(=O)NCCN(CC(=O)NC(CCCCN(C)C)C(N)=O)C(=O)Cn1cc(C)c(=O)[nH]c1=O)C(=O)Cn1cnc2c(=O)[nH]c(N)nc21)C(=O)Cn1cnc2c(=O)[nH]c(N)nc21)C(=O)Cn1cnc2c(=O)[nH]c(N)nc21)C(=O)Cn1cc(C)c(=O)[nH]c1=O` (centres undefined), the Tm was determined as 57.3 °C. As to `CC(=O)NCCN(CC(=O)NC(CCCCN)CN(CC(=O)NC(CCCCN)CN(CC(=O)NC(CCCCN)CN(CC(=O)NCCN(CC(=O)NC(CCCCN(C)C)C(N)=O)C(=O)Cn1cc(C)c(=O)[nH]c1=O)C(=O)Cn1cnc2c(=O)[nH]c(N)nc21)C(=O)Cn1cnc2c(=O)[nH]c(N)nc21)C(=O)Cn1cnc2c(=O)[nH]c(N)nc21)C(=O)Cn1cc(C)c(=O)[nH]c1=O` (centres undefined), the Tm turned out to be 59.1 °C.

As to `CC(=O)NCCN(CC(=O)NC(CCCCN)CN(CC(=O)NCCN(CC(=O)NC(CCCCN)CN(CC(=O)NCCN(CC(=O)NC(CCCCN(C)C)C(N)=O)C(=O)Cn1cc(C)c(=O)[nH]c1=O)C(=O)Cn1cnc2c(=O)[nH]c(N)nc21)C(=O)Cn1cnc2c(=O)[nH]c(N)nc21)C(=O)Cn1cnc2c(=O)[nH]c(N)nc21)C(=O)Cn1cc(C)c(=O)[nH]c1=O` (centres undefined), the Tm stood at 58.4 °C.

Take `CC(=O)NCCN(CC(=O)NCCN(CC(=O)NC(CCCCN)CN(CC(=O)NCCN(CC(=O)NCCN(CC(=O)NC(CCCCN(C)C)C(N)=O)C(=O)Cn1cc(C)c(=O)[nH]c1=O)C(=O)Cn1cnc2c(=O)[nH]c(N)nc21)C(=O)Cn1cnc2c(=O)[nH]c(N)nc21)C(=O)Cn1cnc2c(=O)[nH]c(N)nc21)C(=O)Cn1cc(C)c(=O)[nH]c1=O` (centres undefined): the Tm was found to be 60.2 °C.
